From patent US9657071B2, “IgE peptide vaccine” (NIPPON ZENYAKU KOGYO CO., LTD., priority 2012, dated 2017)

Legend:
[1] = test system: Dermatophagoides farinae antigen-specific IgE; assay: Treatment experiment, artificially sensitized dogs: Dermatophagoides farinae antigen-specific IgE (ELISA); format: in vivo, dog; settings: artificially sensitized beagles, s.c. 1 mg five times; one individual (04-95) of 4
Method: Dog: 8 artificially sensitized beagles (1 to 8 years old; 4 males and 4 females) were used. The ages and numbers of these 8 dogs were as follows:
Artificial sensitization: 400 μg of a Dermatophagoides farinae antigen (GREER) and 1 mg of an alum adjuvant (LSL) were subcutaneously administered at a 2-week interval, and IgE against the Dermatophagoides farinae antigen was confirmed by ELISA.
Grouping: on the basis of the ELISA results of IgE, the dogs were divided into 2 groups each involving 4 individuals uniformly distributed in terms of their IgE levels and ages.
Vaccine: the M4-7-11 peptide was used alone without being conjugated.
Administration method: 1 mg (500 μL of 2 mg/mL) per dose was subcutaneously administered five times at 2-week intervals.
Evaluation: serum was collected, and an IgG antibody against human IgE was assayed by ELISA. […] The IgE antibody against Dermatophagoides farinae was evaluated by ELISA.
The Dermatophagoides farinae antigen was prepared at 5 μg/mL in an immobilization buffer (0.05 M carbonate buffer, pH 9.6), then added at a concentration of 100 μL/well to an ELISA plate, and left overnight at 4° C. […] Then, the measurement was performed using a plate reader (Bio-Rad Laboratories, Inc.; model 680) (dual: measurement: 450 nm, control: 570 nm).

dog IgE = assay: Intravenous administration test using rats: IgG antibody against dog IgE (ELISA); format: in vivo; settings: i.v.
Method: The dog IgE protein (Bethyl Laboratories, Inc.; P115), the mouse IgE protein (BD Biosciences, San Jose, Calif., USA), and the human IgE protein (Athens Research And Technology, Inc.; 16-16-090705-ML) were each prepared at 1 μg/mL, 500 ng/mL, 250 ng/mL, 125 ng/mL, 62.5 ng/mL, 31.2 ng/mL, 15.6 ng/mL, 7.8 ng/mL, 3.9 ng/mL, 1.95 ng/mL, and 0.97 ng/mL in an immobilization buffer (0.05 M carbonate buffer, pH 9.6), then added at a concentration of 100 μL/well to an ELISA plate, and left overnight at 4° C. The immobilization plate was washed once with PBS-T (0.05%). A blocking solution (4× Block Ace, Snow Brand Milk Products Co., Ltd.; UK-B80) was added thereto at a concentration of 200 μL/well. The plate was blocked by incubation at 37° C. for 1.5 hours. The serum was diluted 2000-fold with a diluent (PBS-T:Block Ace=9:1) and used. The serum of an unimmunized rat was similarly diluted and used as a negative control. […] Then, the measurement was performed using a plate reader (Bio-Rad Laboratories, Inc.; model 680) (dual: measurement: 450 nm, control: 570 nm).
This peptide was used in the immunization of rats without the use of an adjuvant, and antibody response to dog IgE was evaluated. […]
Blood was collected every 2 weeks from the administer start date up to 8 weeks after the third immunization. Serum was collected, and an IgG antibody against dog IgE was evaluated by ELISA (FIG. 13). […]

human IgE = assay: Reactivity of serum of peptide-immunized rabbit with human IgE (ELISA); format: in vivo; settings: 500 μg peptide + complete adjuvant s.c.
Method: 2 mL of the 250 μg/mL peptide (a total of 500 μg) used in Example 2 was mixed with an equal amount of a complete adjuvant (a total of 4 mL). Each rabbit was immunized with this mixture by the subcutaneous administration (amount of the peptide: 500 μg) at day 0 and weeks 2, 4, 6, and 8. Blood was collected 5 weeks after the week-8 administration (week 13 counted from day 0). Booster immunization was performed at week 14 counted from day 0, and blood was further collected 2 weeks thereafter (week 16 counted from day 0). Antibody titers in the collected blood were measured by ELISA. The serum of a rabbit that received no peptide was used as a control.
ELISA was performed by the following method: each […] recombinant CH3 solution of dog IgE, human IgE, mouse IgE, dog IgG, and cat IgE was immobilized at a concentration of 100 μL/well (100 ng/well) to a plate. The serum collected from the immunized rabbit was used (×200 to ×102400) as a primary antibody. An enzyme-labeled anti-rabbit IgG antibody (Zymed Laboratories Inc.) was used as a secondary antibody.

Sequence | serum concentration of Dermatophagoides farinae antigen-specific IgE [1] | anti-dog IgE IgG antibody titers in rat serum (dog IgE; all dose groups, final day (8 weeks after the third vaccination day)) [times] | level of the IgG antibody against dog IgE (dog IgE; rat, 1 mg, 500 μg, 100 μg or 50 μg per animal three times, no adjuvant, all groups) | response of immobilized human IgE to peptide-administered rabbit serum (human IgE)
KKTSVSASQWYTKHHNNATT (listed as Mus musculus) [M4-7-11] | reduction in the serum concentration of IgE was confirmed in one individual | 3000 | a rise in the level of the IgG antibody against dog IgE was confirmed | –
QEKKTSVSASQWYTKHHNNATTSIT (listed as Mus musculus) [MOUSE CH3-4-17-11] | – | – | – | responded
